# Measured values as given in patent US20080161398A1, “STIMULATION OF IN VIVO PRODUCTION OF PROTEINS” (Nutricia N.V., priority 2002, published 2008).
# Tested on: mixed muscle protein synthesis
# Test: Fractional synthetic rate of mixed muscle protein synthesis in anaesthetized rats after intravenous infusion of amino acid compositions
# Type: in vivo
# Method: Four groups of anaesthetized rats were given an amino acid composition. The same total amount of amino acids was given to each group by intravenous infusion. A fifth group was added to the study as a control group. The first group was given a balanced mixture of amino acids, commercially available under the trade name Travasol. This mixture contains less than 5% leucine. The second group was given 75% of Travasol and 25% of leucine. The third group was given 65% of Travasol and 35% of leucine, and the fourth group was given only leucine. The in fractional synthetic rate of mixed muscle protein synthesis (FSR (%/h)) was measured as described by Ferrando et al., Am. J. Physiol., 275:E864-E871, 1998, the contents of which are incorporated herein by reference.
smiles,measurement,setting,value
"CC(C)C[C@H](N)C(=O)O [Leucine alone, leucine]",response in protein production,"administration of L-leucine alone, as shown in the appended examples",does not induce the desired response in protein production
same,"FSR (%/h), fractional synthetic rate of mixed muscle protein synthesis","anaesthetized rats, intravenous infusion, same total amount of amino acids given to each group",0.0767 ± 0.0204 %/h
